Among the data in ChEMBL document CHEMBL5385866, “Switch type I to type II TRK inhibitors for combating clinical resistance induced by xDFG mutation for cancer therapy” (Eur J Med Chem, 2023) are IC50 and viability values, retold here.

Test [1] concerns BaF3. The experiment in a line: cells. Particulars: Mus musculus, BaF3, 72 h.
Description: Antiproliferative activity against mouse BaF3 cells harbouring CD74-TRKA assessed as inhibition of cell growth incubated for 72 hrs by CCK8 assay
Test [2] deals with High affinity nerve growth factor receptor (Homo sapiens, UniProt P04629). Description: Inhibition of TRKA (unknown origin) using […] peptide as substrate incubated for 1 hr in presence of ATP by FRET based Z'-lyte assay.
In test [3] the target is NT-3 growth factor receptor (Homo sapiens, UniProt Q16288). The experiment in a line: Inhibition of TRKC (unknown origin) using […] peptide as substrate incubated for 1 hr in presence of ATP by FRET based Z'-lyte assay.
For test [4], the target named is BDNF/NT-3 growth factors receptor (Homo sapiens, UniProt Q16620). The experiment in a line: Inhibition of TRKB (unknown origin) using […] peptide as substrate incubated for 1 hr in presence of ATP by FRET based Z'-lyte assay.
In test [5] the test system is BaF3. Description: cells. Conditions: Mus musculus, BaF3, 72 h. This is another data set of the same source.
Description: Antiproliferative activity against mouse BaF3 cells harbouring ETV6-TRKC assessed as inhibition of cell growth incubated for 72 hrs by CCK8 assay
The subject of test [6] is BaF3. Description: cells. Particulars: Mus musculus, BaF3, 72 h. This is another data set of the same source.
Test [7] relates to BaF3. The experiment in a line: cells. Particulars: Mus musculus, BaF3, 72 h. This is another data set of the same source.
Description: Antiproliferative activity against mouse BaF3 cells harbouring ETV6-TRKB assessed as inhibition of cell growth incubated for 72 hrs by CCK8 assay
Test [8] deals with High affinity nerve growth factor receptor (Homo sapiens, UniProt P04629, G667C). The experiment in a line: Inhibition of TRKA G667C mutant (unknown origin) using […] peptide as substrate incubated for 1 hr in presence of ATP by FRET based Z'-lyte assay.
Test [9] has as its system BaF3. Description: Induction of apoptosis in mouse BaF3 cells harboring CD74-TRKA assessed as viable cells at 4 nM incubated 48 hrs by Annexin V-FITC/7-AAD staining based flow cytometric analysis (reference value: 89.30%). It is filed as functional. Particulars: read-out: Activity. (A flow cytometer gives signals particle by particle.)
Test [10] has as its target Vascular endothelial growth factor receptor 2 (Homo sapiens, UniProt P35968). Description: Inhibition of VEGFR2 (unknown origin).
In test [11] the test system is BaF3. The experiment in a line: Induction of apoptosis in mouse BaF3 cells harboring CD74-TRKA G667C mutant assessed as viable cells at 2 nM incubated 48 hrs by Annexin V-FITC/7-AAD staining based flow cytometric analysis (reference value: 89.60%). It is filed as functional. Particulars: read-out: Activity.
In test [12] the test system is BaF3. The experiment in a line: Induction of apoptosis in mouse BaF3 cells harboring CD74-TRKA assessed as viable cells at 500 nM incubated 48 hrs by Annexin V-FITC/7-AAD staining based flow cytometric analysis (reference value: 89.30%). Particulars: read-out: Activity. Format: functional.
Test [13] has as its target Proto-oncogene tyrosine-protein kinase receptor Ret (Homo sapiens, UniProt P07949). The experiment in a line: Inhibition of RET (unknown origin).
Test [14] concerns BaF3. The experiment in a line: Induction of apoptosis in mouse BaF3 cells harboring CD74-TRKA assessed as viable cells at 100 nM incubated 48 hrs by Annexin V-FITC/7-AAD staining based flow cytometric analysis (reference value: 89.30%). Format: functional. Conditions: read-out: Activity.
Test [15] concerns BaF3. Description: Induction of apoptosis in mouse BaF3 cells harboring CD74-TRKA assessed as viable cells at 20 nM incubated 48 hrs by Annexin V-FITC/7-AAD staining based flow cytometric analysis (reference value: 89.30%). It is filed as functional. Conditions: read-out: Activity.
Test [16] deals with BaF3. The experiment in a line: Induction of apoptosis in mouse BaF3 cells harboring CD74-TRKA G667C mutant assessed as viable cells at 10 nM incubated 48 hrs by Annexin V-FITC/7-AAD staining based flow cytometric analysis (reference value: 89.60%). Particulars: read-out: Activity. Format: functional.
In test [17] the test system is BaF3. Description: Induction of apoptosis in mouse BaF3 cells harboring CD74-TRKA G667C mutant assessed as viable cells at 0.4 nM incubated 48 hrs by Annexin V-FITC/7-AAD staining based flow cytometric analysis (reference value: 89.60%). Conditions: read-out: Activity. Format: functional.
Test [18] concerns the target T1, Receptor-type tyrosine-protein kinase FLT3 (Homo sapiens, UniProt P36888).
T1 sequence (P36888 whole entry): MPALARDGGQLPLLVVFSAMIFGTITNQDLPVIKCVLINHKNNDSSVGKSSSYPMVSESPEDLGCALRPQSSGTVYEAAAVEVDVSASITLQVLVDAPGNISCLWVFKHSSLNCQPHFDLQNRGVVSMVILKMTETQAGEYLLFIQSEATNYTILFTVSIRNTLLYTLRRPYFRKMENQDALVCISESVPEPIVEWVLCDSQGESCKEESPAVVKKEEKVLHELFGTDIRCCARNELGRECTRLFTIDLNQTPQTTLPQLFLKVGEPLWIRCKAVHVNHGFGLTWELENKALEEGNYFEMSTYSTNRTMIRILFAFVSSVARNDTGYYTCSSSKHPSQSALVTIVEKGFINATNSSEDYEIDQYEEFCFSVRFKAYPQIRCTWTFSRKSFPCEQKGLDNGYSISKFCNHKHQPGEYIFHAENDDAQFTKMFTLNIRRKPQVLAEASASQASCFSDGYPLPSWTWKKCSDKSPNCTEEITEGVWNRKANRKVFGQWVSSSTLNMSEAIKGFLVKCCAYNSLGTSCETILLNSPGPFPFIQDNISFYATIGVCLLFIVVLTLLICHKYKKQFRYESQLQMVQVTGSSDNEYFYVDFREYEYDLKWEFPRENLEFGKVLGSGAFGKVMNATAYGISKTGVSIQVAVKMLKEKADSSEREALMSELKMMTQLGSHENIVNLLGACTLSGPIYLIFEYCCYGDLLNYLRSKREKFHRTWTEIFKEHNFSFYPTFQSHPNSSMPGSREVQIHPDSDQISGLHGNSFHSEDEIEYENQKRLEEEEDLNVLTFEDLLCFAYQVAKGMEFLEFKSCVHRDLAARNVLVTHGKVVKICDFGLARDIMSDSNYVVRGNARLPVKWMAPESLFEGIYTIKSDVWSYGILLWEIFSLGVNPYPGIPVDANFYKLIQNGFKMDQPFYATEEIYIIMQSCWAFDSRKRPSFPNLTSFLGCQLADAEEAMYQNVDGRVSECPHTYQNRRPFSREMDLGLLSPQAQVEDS
Description: Inhibition of FLT3 (unknown origin).

Test [19] relates to BaF3. The experiment in a line: Induction of apoptosis in mouse BaF3 cells harboring CD74-TRKA G667C mutant assessed as viable cells at 50 nM incubated 48 hrs by Annexin V-FITC/7-AAD staining based flow cytometric analysis (reference value: 89.60%). Format: functional. Conditions: read-out: Activity.
For test [20], the system named is BaF3. The experiment in a line: cells. Particulars: Mus musculus, BaF3, 72 h. The source holds these as a separate data set.
Description: Antiproliferative activity against mouse BaF3 cells assessed as inhibition of cell growth incubated for 72 hrs by CCK8 assay
In test [21] the test system is BaF3. Description: cells. Particulars: Mus musculus, BaF3, 72 h. This is another data set of the same source.
Description: Antiproliferative activity against mouse BaF3 cells harbouring CD74-TRKA G595R mutant assessed as inhibition of cell growth incubated for 72 hrs by CCK8 assay
Test [22] relates to BaF3. Description: cells. Conditions: Mus musculus, BaF3, 72 h. The source holds these as a separate data set.
Description: Antiproliferative activity against mouse BaF3 cells harbouring CD74-TRKA G623R mutant assessed as inhibition of cell growth incubated for 72 hrs by CCK8 assay

High affinity nerve growth factor receptor (Homo sapiens, UniProt P04629), sequence (P04629 whole entry): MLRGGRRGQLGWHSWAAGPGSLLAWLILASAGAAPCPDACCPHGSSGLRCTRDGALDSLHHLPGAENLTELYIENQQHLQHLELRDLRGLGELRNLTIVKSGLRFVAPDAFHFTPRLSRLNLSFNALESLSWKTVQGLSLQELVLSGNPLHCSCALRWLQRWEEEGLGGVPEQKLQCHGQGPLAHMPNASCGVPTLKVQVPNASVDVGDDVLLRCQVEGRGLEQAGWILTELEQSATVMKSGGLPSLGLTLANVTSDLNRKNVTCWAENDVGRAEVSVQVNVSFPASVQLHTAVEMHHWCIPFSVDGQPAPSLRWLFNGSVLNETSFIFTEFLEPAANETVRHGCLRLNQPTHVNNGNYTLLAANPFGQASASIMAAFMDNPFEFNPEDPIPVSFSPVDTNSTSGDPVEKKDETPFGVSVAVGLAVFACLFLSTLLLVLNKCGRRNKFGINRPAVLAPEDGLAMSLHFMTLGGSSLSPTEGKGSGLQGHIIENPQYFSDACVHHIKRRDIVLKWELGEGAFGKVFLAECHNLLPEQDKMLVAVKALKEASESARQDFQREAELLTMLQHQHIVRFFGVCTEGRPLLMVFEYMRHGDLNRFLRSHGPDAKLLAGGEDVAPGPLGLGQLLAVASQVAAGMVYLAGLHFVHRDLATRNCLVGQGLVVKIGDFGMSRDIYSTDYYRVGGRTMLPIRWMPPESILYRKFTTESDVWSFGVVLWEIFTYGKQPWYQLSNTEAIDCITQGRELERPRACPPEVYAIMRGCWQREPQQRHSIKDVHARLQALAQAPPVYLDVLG
NT-3 growth factor receptor, sequence (Q16288 whole entry): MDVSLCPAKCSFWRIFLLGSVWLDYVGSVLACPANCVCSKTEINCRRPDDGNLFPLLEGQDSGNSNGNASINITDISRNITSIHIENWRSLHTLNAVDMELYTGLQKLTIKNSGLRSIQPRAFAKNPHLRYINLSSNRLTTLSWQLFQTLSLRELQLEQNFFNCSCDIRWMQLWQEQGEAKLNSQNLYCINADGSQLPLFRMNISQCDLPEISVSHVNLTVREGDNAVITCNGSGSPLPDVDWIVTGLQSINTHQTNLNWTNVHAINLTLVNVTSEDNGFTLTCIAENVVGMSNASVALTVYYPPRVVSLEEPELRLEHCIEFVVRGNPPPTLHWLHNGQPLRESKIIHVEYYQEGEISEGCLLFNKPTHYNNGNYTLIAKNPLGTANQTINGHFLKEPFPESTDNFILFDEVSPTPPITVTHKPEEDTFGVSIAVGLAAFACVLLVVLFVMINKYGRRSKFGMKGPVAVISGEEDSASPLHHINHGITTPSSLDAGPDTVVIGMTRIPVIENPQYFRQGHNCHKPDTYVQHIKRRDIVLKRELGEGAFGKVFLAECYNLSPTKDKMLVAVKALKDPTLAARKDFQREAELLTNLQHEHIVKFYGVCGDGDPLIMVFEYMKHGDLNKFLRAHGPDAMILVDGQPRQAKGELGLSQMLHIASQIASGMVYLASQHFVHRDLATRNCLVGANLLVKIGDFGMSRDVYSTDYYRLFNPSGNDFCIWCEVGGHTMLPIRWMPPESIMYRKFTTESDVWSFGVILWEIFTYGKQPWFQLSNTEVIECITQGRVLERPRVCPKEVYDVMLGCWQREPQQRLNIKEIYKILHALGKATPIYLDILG
High affinity nerve growth factor receptor (Homo sapiens, UniProt P04629, G667C), sequence (P04629 33-796 G667C limits assumed): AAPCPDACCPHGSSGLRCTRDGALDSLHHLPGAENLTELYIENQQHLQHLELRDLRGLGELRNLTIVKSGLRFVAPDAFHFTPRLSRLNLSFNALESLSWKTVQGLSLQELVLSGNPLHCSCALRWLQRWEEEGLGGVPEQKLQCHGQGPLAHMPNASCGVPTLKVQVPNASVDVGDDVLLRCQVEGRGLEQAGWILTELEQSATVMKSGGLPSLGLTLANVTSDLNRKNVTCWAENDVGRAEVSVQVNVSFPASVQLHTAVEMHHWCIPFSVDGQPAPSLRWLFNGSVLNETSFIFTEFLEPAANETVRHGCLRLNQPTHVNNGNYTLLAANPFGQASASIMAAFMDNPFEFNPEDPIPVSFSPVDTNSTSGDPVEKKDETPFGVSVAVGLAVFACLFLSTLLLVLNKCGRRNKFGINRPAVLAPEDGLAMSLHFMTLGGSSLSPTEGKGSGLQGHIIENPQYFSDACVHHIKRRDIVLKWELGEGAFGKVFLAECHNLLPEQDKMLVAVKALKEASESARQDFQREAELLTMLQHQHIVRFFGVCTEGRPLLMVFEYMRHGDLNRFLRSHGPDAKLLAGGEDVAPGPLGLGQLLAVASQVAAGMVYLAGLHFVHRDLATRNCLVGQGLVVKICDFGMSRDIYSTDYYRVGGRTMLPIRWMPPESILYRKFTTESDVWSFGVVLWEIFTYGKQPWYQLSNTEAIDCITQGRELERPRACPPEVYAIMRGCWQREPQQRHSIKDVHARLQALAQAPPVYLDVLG
BDNF/NT-3 growth factors receptor, sequence (Q16620 whole entry): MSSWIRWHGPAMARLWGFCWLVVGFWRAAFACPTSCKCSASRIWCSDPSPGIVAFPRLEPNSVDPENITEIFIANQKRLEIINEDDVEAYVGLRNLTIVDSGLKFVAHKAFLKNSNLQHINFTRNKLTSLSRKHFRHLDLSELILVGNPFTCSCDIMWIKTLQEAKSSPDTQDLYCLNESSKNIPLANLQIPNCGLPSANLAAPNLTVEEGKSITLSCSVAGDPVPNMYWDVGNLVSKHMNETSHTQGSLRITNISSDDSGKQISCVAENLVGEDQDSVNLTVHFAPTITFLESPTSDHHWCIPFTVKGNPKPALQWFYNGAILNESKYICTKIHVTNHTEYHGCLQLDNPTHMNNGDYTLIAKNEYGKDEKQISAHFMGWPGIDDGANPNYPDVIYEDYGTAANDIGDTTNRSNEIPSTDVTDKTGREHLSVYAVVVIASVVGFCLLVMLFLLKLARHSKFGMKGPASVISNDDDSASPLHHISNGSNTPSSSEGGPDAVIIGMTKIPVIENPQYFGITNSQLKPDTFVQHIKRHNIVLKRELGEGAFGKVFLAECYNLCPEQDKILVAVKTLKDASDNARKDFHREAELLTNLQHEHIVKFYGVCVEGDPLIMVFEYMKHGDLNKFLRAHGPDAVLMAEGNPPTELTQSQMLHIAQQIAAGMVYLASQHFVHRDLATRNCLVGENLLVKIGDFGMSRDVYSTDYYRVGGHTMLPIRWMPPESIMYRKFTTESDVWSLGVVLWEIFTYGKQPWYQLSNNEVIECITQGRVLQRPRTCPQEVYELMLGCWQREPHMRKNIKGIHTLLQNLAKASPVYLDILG
Vascular endothelial growth factor receptor 2, sequence (P35968 whole entry): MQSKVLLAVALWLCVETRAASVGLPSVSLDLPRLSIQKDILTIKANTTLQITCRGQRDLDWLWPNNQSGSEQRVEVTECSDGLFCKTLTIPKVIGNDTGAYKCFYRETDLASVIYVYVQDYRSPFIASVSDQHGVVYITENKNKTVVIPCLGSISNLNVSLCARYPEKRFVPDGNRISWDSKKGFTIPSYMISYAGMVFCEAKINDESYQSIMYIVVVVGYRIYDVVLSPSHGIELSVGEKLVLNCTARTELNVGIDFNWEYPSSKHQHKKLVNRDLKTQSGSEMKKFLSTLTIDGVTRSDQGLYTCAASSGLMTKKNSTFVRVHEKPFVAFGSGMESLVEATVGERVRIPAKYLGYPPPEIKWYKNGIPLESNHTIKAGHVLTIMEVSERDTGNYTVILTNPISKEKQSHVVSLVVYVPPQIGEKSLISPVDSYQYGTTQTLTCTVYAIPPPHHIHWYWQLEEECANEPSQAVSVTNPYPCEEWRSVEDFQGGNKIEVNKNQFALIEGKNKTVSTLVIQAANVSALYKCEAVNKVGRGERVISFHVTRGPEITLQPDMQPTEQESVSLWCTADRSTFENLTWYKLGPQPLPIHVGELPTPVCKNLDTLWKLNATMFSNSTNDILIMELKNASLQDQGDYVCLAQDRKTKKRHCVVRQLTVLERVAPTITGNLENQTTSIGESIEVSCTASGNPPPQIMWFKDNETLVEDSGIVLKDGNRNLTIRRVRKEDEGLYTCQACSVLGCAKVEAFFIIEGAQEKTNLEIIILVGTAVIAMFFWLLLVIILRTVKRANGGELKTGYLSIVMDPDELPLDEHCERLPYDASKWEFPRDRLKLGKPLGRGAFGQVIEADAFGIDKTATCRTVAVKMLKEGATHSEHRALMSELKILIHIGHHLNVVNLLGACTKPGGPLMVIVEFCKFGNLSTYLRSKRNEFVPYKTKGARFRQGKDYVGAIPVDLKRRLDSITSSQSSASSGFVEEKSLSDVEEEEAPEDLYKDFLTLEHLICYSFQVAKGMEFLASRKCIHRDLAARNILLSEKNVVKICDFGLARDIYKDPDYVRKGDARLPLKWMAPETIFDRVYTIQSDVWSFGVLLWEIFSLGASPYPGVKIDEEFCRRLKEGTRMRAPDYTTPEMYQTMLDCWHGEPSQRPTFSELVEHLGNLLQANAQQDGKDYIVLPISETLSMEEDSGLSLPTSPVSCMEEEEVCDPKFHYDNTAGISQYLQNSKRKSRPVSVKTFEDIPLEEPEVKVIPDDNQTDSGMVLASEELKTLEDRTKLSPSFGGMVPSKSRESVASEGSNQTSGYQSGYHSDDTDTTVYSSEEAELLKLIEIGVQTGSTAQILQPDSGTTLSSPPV

The term IC50 denotes the concentration at which inhibition is half-maximal. Consider `CN1CCN(Cc2cc(NC(=O)[C@@H]3CCN(c4ccc5ncc(-c6ccccn6)n5n4)C3)cc(C(F)(F)F)c2)CC1`, for which the IC50 came to 0.0615 µM in the test with BaF3 [1]; 0.0058 µM in test [2]; 0.0081 µM in [3]; 0.0051 µM in [4]; 0.0264 µM in the test on BaF3 [5]; 0.0093 µM in the test with BaF3 [6]. For the same molecule, the IC50 in the test on BaF3 [7] turned out to be 0.0518 µM; in test [8], 0.0165 µM.

Regarding `CN1CCN(Cc2ccc(NC(=O)[C@@H]3CCN(c4ccc5ncc(-c6cccnc6)n5n4)C3)cc2C(F)(F)F)CC1`, the figures for the IC50 in test [3] and in [4] were 0.008 µM and 0.0111 µM, respectively.

Regarding `CN1CCN(Cc2ccc(NC(=O)[C@@H]3CCN(c4ccc5ncc(-c6cnn(C7CCOCC7)c6)n5n4)C3)cc2C(F)(F)F)CC1`, the values for the IC50 in test [2], in test [4] and in [8] were 0.0132 µM, 0.0268 µM and 0.0355 µM, respectively.

`O=C(Nc1ccc(Cl)c(C(F)(F)F)c1)N[C@@H]1CCN(c2ccc3ncc(-c4ccccn4)n3n2)C1`: the 50% inhibitory concentration (IC50) with BaF3 [1] stood at 0.695 µM; in test [2], 0.0457 µM; in test [3], 0.017 µM; in test [4], 0.0816 µM; in the test on BaF3 [5] it was 0.225 µM; in the test with BaF3 [6], 0.0044 µM. Also, the IC50 in the test with BaF3 [7] turned out to be 0.508 µM; in test [8], 0.0151 µM.

In the case of `CN1CCN(Cc2cc(NC(=O)[C@H]3CCN(c4ccc5ncc(-c6ccccn6)n5n4)C3)cc(C(F)(F)F)c2)CC1`, the half-maximal inhibitory concentration (IC50) turned out to be 0.261 µM in the test on BaF3 [1]; 0.0352 µM in test [2]; 0.0402 µM in test [3]; 0.0508 µM in test [4]; 0.141 µM in the test on BaF3 [5]; 0.0493 µM in the test on BaF3 [6]. The IC50 in the test on BaF3 [7] amounted to 0.215 µM; in test [8], 0.0981 µM.

Consider `CN1CCN(Cc2ccc(NC(=O)[C@@H]3CCN(c4ccc5ncc(-c6cn[nH]c6)n5n4)C3)cc2C(F)(F)F)CC1`, for which the IC50 is 0.296 µM in the test on BaF3 [1]; 0.0058 µM in [2]; 0.0078 µM in test [3]; 0.0138 µM in [4]; 0.195 µM in the test on BaF3 [5]; 0.0273 µM in the test on BaF3 [6]. Besides, the concentration for half-maximal inhibition (IC50) stood at 0.522 µM in the test on BaF3 [7] and 0.0338 µM in test [8].

Consider `Cc1cn(-c2cc(NC(=O)[C@@H]3CCN(c4ccc5ncc(-c6ccccn6)n5n4)C3)cc(C(F)(F)F)c2)cn1`, for which the IC50 in the test on BaF3 [1] is 0.0291 µM; in test [2], 0.0131 µM; in test [3], 0.0101 µM; in test [4] it was 0.0059 µM; in the test with BaF3 [5], 0.0158 µM; in the test on BaF3 [6] it was 0.0018 µM. Further, the IC50 came to 0.0253 µM with BaF3 [7] and 0.0252 µM in test [8].

With `CN1CCN(Cc2ccc(NC(=O)[C@@H]3CCN(c4ccc5ncc(-c6ccccn6)n5n4)C3)cc2C(F)(F)F)CC1`, the viability at 0.004 µM in the test on BaF3 [9] was 59.9%. Besides, the IC50 in [10] came to 0.0711 µM; in [2] it was 0.0033 µM; in [3], 0.0043 µM; in test [13], 0.0099 µM; in test [18] it was 0.0013 µM; in test [8], 0.0094 µM. Further, the viability at 0.002 µM with BaF3 [11] worked out at 89.8%. Also, the viability at 0.5 µM in the test with BaF3 [12] was 60.8%. Also, the viability at 0.1 µM with BaF3 [14] is 78.1%. In the test on BaF3 [15], the viability at 0.02 µM is 87.8%. Also, the viability at 0.01 µM in the test on BaF3 [16] amounted to 87.6%. For the same molecule, in the test on BaF3 [17], the viability at 0.0004 µM worked out at 89.1%. Moreover, the viability at 0.05 µM in the test on BaF3 [19] worked out at 43%.

Take `Cc1conc1NC(=O)N[C@@H]1CCN(c2ccc3ncc(-c4ccccn4)n3n2)C1`: the IC50 in test [2] was determined as 0.0687 µM; in [3], 0.0368 µM; in test [8] it was 0.241 µM.

For `CN1CCN(Cc2ccc(NC(=O)[C@@H]3CCN(c4ccc5ncc(-c6cnn(CCO)c6)n5n4)C3)cc2C(F)(F)F)CC1`, the IC50 in test [2] stood at 0.0087 µM; in test [4], 0.0216 µM; in [8], 0.0525 µM.

In the case of `CN1CCN(Cc2ccc(NC(=O)[C@@H]3CCN(c4ccc5ncc(-c6ccc(N)nc6)n5n4)C3)cc2C(F)(F)F)CC1`, the IC50 in test [2] worked out at 0.006 µM; in test [4], 0.0096 µM; in test [8], 0.0167 µM.

In the case of `CN1CCN(Cc2ccc(NC(=O)[C@@H]3CCN(c4ccc5nccn5n4)C3)cc2C(F)(F)F)CC1`, the figures for the concentration for half-maximal inhibition (IC50) in test [2], in [4] and in test [8] were 0.245 µM, over 1 µM and 0.938 µM, respectively.

`O=C(Nc1cnn2ccc(N3CCC[C@@H]3c3cc(F)ccc3F)nc12)N1CC[C@H](O)C1` [LAROTRECTINIB]: the IC50 with BaF3 [1] is 0.0093 µM; in the test with BaF3 [5], 0.0154 µM; in the test on BaF3 [20] it was over 2 µM; in the test on BaF3 [21], over 1 µM; with BaF3 [22], over 1 µM; with BaF3 [6] it was 0.284 µM. In the test with BaF3 [7], this molecule yielded an IC50 of 0.0297 µM.

Turning to `C[C@@H]1CCc2ncc(F)cc2[C@H]2CCCN2c2ccn3ncc(c3n2)C(=O)N1` [SELITRECTINIB], the IC50 in the test with BaF3 [1] is 0.0017 µM; in the test with BaF3 [5] it was 0.0012 µM; in the test on BaF3 [7], 0.0052 µM.
